Reference: PubChem BioAssay (NCI)
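These data come from cells grown in 96-well plates and exposed to compound for 48 hours at five concentrations. At the TGI there is no net growth.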

Experiments:
Assay in all cases: DTP human tumour cell line panel, 48 h
[1] = system: M19-MEL melanoma
[2] = system: K-562 leukemia
[3] = system: A498 renal
[4] = system: OVCAR-5 ovarian
[5] = system: SF-539 CNS
[6] = system: MALME-3M melanoma
[7] = system: OVCAR-4 ovarian
[8] = system: HOP-62 NSCLC
[9] = system: 786-0 renal
[10] = system: XF 498 CNS
[11] = system: SF-268 CNS
[12] = system: SK-OV-3 ovarian
[13] = system: COLO 205 colon
[14] = system: SK-MEL-5 melanoma
[15] = system: UO-31 renal
[16] = system: HCT-15 colon
[17] = system: M14 melanoma
[18] = system: KM20L2 colon
[19] = system: DMS 114 small cell lung
[20] = system: NCI-H460 lung
[21] = system: DLD-1 colon
[22] = system: SR leukemia
[23] = system: SF-295 CNS
[24] = system: A549 NSCLC
[25] = system: SNB-78 CNS
[26] = system: HCT-116 colon
[27] = system: TK-10 renal
[28] = system: NCI-H226 lung
[29] = system: OVCAR-8 ovarian
[30] = system: RPMI-8226 leukemia
[31] = system: SK-MEL-28 melanoma
[32] = system: SN12C renal
[33] = system: RXF 393 renal
[34] = system: MOLT-4 leukemia
[35] = system: HOP-92 NSCLC
[36] = system: DMS 273 small cell lung
[37] = system: SNB-75 CNS
[38] = system: ACHN renal
[39] = system: CCRF-CEM leukemia
[40] = system: RXF-631 renal
[41] = system: UACC-257 melanoma
[42] = system: HT29 colon
[43] = system: U251 CNS
[44] = system: KM12 colon
[45] = system: HCC-2998 colon
[46] = system: OVCAR-3 ovarian
[47] = system: HL-60(TB) leukemia
[48] = system: HOP-18 NSCLC
[49] = system: NCI-H23 lung
[50] = system: IGROV1 ovarian
[51] = system: LXFL 529 NSCLC
[52] = system: SNB-19 CNS
[53] = system: EKVX NSCLC
[54] = system: CAKI-1 renal
[55] = system: NCI-H522 lung
[56] = system: LOX IMVI melanoma
[57] = system: UACC-62 melanoma
[58] = system: SK-MEL-2 melanoma
[59] = system: SW-620 colon

C[N+]1(C)C/C(=C\c2ccccc2)C(=O)/C(=C/c2ccccc2)C1
TGI [1]: > 100 µM
TGI [2]: > 100 µM
TGI [3]: > 100 µM
TGI [4]: > 100 µM
TGI [5]: > 100 µM
TGI [6]: > 100 µM
TGI [7]: > 100 µM
TGI [8]: > 100 µM
TGI [9]: > 100 µM
TGI [10]: > 100 µM
TGI [11]: > 100 µM
TGI [12]: > 100 µM
TGI [13]: > 100 µM
TGI [14]: > 100 µM
TGI [15]: > 100 µM
TGI [16]: > 100 µM
TGI [17]: > 100 µM
TGI [18]: > 100 µM
TGI [19]: > 100 µM
TGI [20]: > 100 µM
TGI [21]: > 100 µM
TGI [22]: > 100 µM
TGI [23]: > 100 µM
TGI [24]: > 100 µM
TGI [25]: > 100 µM
TGI [26]: > 100 µM
TGI [27]: > 100 µM
TGI [28]: > 100 µM
TGI [29]: > 100 µM
TGI [30]: > 100 µM
TGI [31]: > 100 µM
TGI [32]: 73.2 µM
TGI [33]: > 100 µM
TGI [34]: > 100 µM
TGI [35]: > 100 µM
TGI [36]: > 100 µM
TGI [37]: > 100 µM
TGI [38]: > 100 µM
TGI [39]: > 100 µM
TGI [40]: > 100 µM
TGI [41]: > 100 µM
TGI [42]: > 100 µM
TGI [43]: > 100 µM
TGI [44]: > 100 µM
TGI [45]: > 100 µM
TGI [46]: > 100 µM
TGI [47]: > 100 µM
TGI [48]: > 100 µM
TGI [49]: > 100 µM
TGI [50]: > 100 µM
TGI [51]: > 100 µM

C1CSC(=[N+]2CC[N+](=C3SCCS3)CC2)S1
TGI [1]: > 100 µM
TGI [2]: > 100 µM
TGI [3]: > 100 µM
TGI [4]: > 100 µM
TGI [5]: > 100 µM
TGI [52]: > 100 µM
TGI [6]: > 100 µM
TGI [7]: > 100 µM
TGI [8]: > 100 µM
TGI [9]: > 100 µM
TGI [11]: > 100 µM
TGI [53]: > 100 µM
TGI [12]: > 100 µM
TGI [13]: > 100 µM
TGI [14]: > 100 µM
TGI [15]: > 100 µM
TGI [16]: > 100 µM
TGI [17]: > 100 µM
TGI [18]: > 100 µM
TGI [19]: > 100 µM
TGI [54]: > 100 µM
TGI [20]: > 100 µM
TGI [21]: > 100 µM
TGI [55]: > 100 µM
TGI [56]: > 100 µM
TGI [22]: > 100 µM
TGI [23]: > 100 µM
TGI [24]: > 100 µM
TGI [25]: > 100 µM
TGI [26]: > 100 µM
TGI [27]: > 100 µM
TGI [29]: > 100 µM
TGI [30]: > 100 µM
TGI [31]: > 100 µM
TGI [57]: > 100 µM
TGI [32]: > 100 µM
TGI [33]: > 100 µM
TGI [34]: > 100 µM
TGI [35]: > 100 µM
TGI [36]: > 100 µM
TGI [37]: > 100 µM
TGI [38]: > 100 µM
TGI [39]: > 100 µM
TGI [40]: > 100 µM
TGI [41]: > 100 µM
TGI [42]: > 100 µM
TGI [43]: > 100 µM
TGI [58]: > 100 µM
TGI [44]: > 100 µM
TGI [45]: > 100 µM
TGI [46]: > 100 µM
TGI [47]: > 100 µM
TGI [48]: > 100 µM
TGI [49]: > 100 µM
TGI [50]: > 100 µM
TGI [59]: > 100 µM
TGI [51]: > 100 µM
